Drawing on PMC9481563, “Structural insights into the pSer/pThr dependent regulation of the SHP2 tyrosine phosphatase in insulin and CD28 signaling” (Nature Communications, 2022), this text covers Kd for six compounds.

Positions count from the first letter of the chain named.

Common to all, as to format: binding
Holding throughout (conditions): competitive FP titration vs CF-ppIRS1 100 nM, protein fixed; n = 3 technical replicates

In test [1] the target is T1, inactive SHP2 catalytic domain Pocketless (K260E+R265S) (Homo sapiens, UniProt Q06124, C459S/K260E/R265S).
T1 construct: SHP2 K260E+R265S (Pocketless); 219-528 + C459S; His6 (N); made in house; host or cells: E. coli BL21 (DE3)
T1 sequence (Q06124 219-528 K260E/R265S/C459S): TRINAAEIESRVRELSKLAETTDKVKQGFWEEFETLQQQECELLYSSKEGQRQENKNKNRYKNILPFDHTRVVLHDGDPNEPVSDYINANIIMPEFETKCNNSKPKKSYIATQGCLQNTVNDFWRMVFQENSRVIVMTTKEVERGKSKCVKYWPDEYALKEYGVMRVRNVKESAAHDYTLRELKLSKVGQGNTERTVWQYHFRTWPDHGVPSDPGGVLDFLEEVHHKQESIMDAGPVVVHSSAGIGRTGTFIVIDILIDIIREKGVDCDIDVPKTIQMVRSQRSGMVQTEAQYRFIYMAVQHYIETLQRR
Briefly: Fluorescence polarization titrations, SHP2 Pocketless. The source says:
(§1) The two SH2 domains of PI3KR1 (UniProt P27986; nSH2: 321−433 cSH2: 614–724) were cloned from HEK293T cDNA pool, and subsequently ligated into a modified pET vector encoding maltose binding protein (MBP) tag on the N-terminal and a hexa-His tag on the C-terminal end of the construct. Similarly, the catalytic, tyrosine phosphatase domains of PTPRε (P23469 first domain: 107–399) and PTP1B (P18031; 1–229) were cloned from a HEK293T cDNA pool, and inserted into a pBH4 vector encoding an N-terminal His6 tag (for the final binding experiments, an MBP-tagged version of PTPRε was employed). […] Surface mutants of SHP2 were constructed from the SHP2-C459S plasmid, using the QuickChange protocol. The D425A and H426A catalytic site mutants and all enzymatically active surface mutants were generated similarly, but from the plasmid encoding the wild-type catalytic domain of SHP2. Wild-type C-terminal FLAG-tagged human IRS1 was cloned between HindIII-NotI sites of pcDNA3.1(+) vector (#V79020 Invitrogen, Waltham MA USA). Ser/Ala mutant IRS1 was generated by replacing the region of S616/S636/S666/S736 positions with a cassette carrying S616A/S636A/S666A/S736A mutations. All constructs were validated by complete Sanger sequencing before protein expression and purification. The oligonucleotide sequences used are shown on Supplementary table 4.
(§2) Fluorescence polarization (FP) assays were performed as follows: In direct titration experiments, protein concentration was varied in an 1/2 or 2/3 dilution series (90 µl protein+ 45 µl mix), while concentration of the reporter peptide (CF-ppIRS1) was kept constant at 100 nM. In competitive titrations, the labelled CF-ppIRS1 peptide and protein were both fixed (at 50–80% saturation) and the unlabelled competitor peptide concentration was varied. Fluorescence polarization was always measured in triplicates, on black Corning low volume round bottom 384-well plates (with 10 ul volumes), using a BioTek Cytatation 5 reader, with the green fluorescent protein (GFP) cube filter set (ex: 485/20, em: 528/20, gain: 50, height: 7.5). Fluorescence polarization data was evaluated on Origin 2018. The dissociation constants (Kd) were determined by using the appropriate quadratic and cubic equations inserted as a user-defined function and applying nonlinear fit until convergence. The fitting formulae are shown at Supplementary note 1. Kd ratio distributions for Fig. 6 were calculated using a Monte-Carlo approach (Supplementary note 2).
(§3) Supplementary note 1. Curve fitting of fluorescence polarization (FP) measurements.
(§4) To evaluate polarization values from direct and competitive titrations, we used the following fitting formulae in Origin 2018, as detailed below.
(§5) Direct titration curves were fitted according to the following formula: […]
(§6) Where Imin is the minimal anisotropy, Imax is the (asymptotically estimated) maximal intensity. K0 is the starting concentration of the protein, while T0 is the (fixed) concentration of the labelled peptide and Kd is the dissociation constant.
(§7) Competitive titration curves were fitted with a different formula (In addition to those defined above, constants KdT KdB B0 T0 and D0 here refer to the Kd derived from the direct titration, the unknown Kd of the analyte, the labelled peptide concentration, the competitor peptide concentration as well as the protein concentration, respectively).
(§8) The ± sign refers to two different scenarios, depending on the sign of discriminant (KdT > KdB or […]). For unknown analytes, the choice of sign is not arbitrary, as the fitting will not converge unless the appropriate formula is chosen: […]
(§9) Where A, B and C correspond to the following expressions: […]

The target in test [2] is T2, inactive SHP2 catalytic domain Hillmut (K274E) (Homo sapiens, UniProt Q06124, C459S/K274E).
T2 construct: SHP2 K274E (Hillmut); 219-528 + C459S; His6 (N); made in house; host or cells: E. coli BL21 (DE3)
T2 sequence (Q06124 219-528 K274E/C459S): T1 sequence (Q06124 219-528 K260E/R265S/C459S) with E42K, S47R, K56E
The test is described as follows: Fluorescence polarization titrations, SHP2 Hillmut.
Source text: as §1, §2, §3, §4, §5, §6, §7, §8, §9

The target in test [3] is T3, inactive SHP2 catalytic domain Loopinv (R362E) (Homo sapiens, UniProt Q06124, C459S/R362E).
T3 construct: SHP2 R362E (Loopinv); 219-528 + C459S; His6 (N); made in house; host or cells: E. coli BL21 (DE3)
T3 sequence (Q06124 219-528 R362E/C459S): T1 sequence (Q06124 219-528 K260E/R265S/C459S) with E42K, S47R, R144E
Briefly: Fluorescence polarization titrations, SHP2 Loopinv.
Source text: as §1, §2, §3, §4, §5, §6, §7, §8, §9

Consider `CC[C@H](C)[C@H](NC(=O)[C@H](CC(N)=O)NC(=O)[C@@H](NC(=O)[C@H](Cc1ccc(OP(=O)(O)O)cc1)NC(=O)[C@H](CCC(=O)O)NC(=O)CNC(=O)[C@@H]1CCCN1C(=O)[C@H](CO)NC(=O)[C@H](CCCCN)NC(=O)[C@@H]1CCCN1C(=O)[C@@H](N)CCC(=O)O)C(C)C)C(=O)N[C@@H](CCC(=O)O)C(=O)N[C@@H](Cc1ccccc1)C(=O)O` [p0SRev-IRS1], for which the Kd in test [1] was found to be 17.7 ± 2.13 µM; in test [2], 14.8 ± 0.88 µM; in test [3], 9.35 ± 1.54 µM.

With `CSCC[C@H](NC(=O)[C@@H]1CCCN1C(=O)[C@H](CCSC)NC(=O)[C@H](Cc1ccc(OP(=O)(O)O)cc1)NC(=O)[C@H](CC(=O)O)NC(=O)CNC(=O)[C@H](CO)NC(=O)CNC(=O)[C@H](CCCCN)NC(=O)[C@H](CCCNC(=N)N)NC(=O)CN)C(=O)N[C@@H](COP(=O)(O)O)C(=O)N1CCC[C@H]1C(=O)N[C@@H](CCCCN)C(=O)N[C@@H](CO)C(=O)O` [ppIRS1], the Kd in test [1] was 6.36 ± 0.28 µM; in test [2] it was 2.23 ± 0.14 µM; in test [3], 7.53 ± 1.1 µM.

On to `CC[C@H](C)[C@H](NC(=O)[C@H](CC(N)=O)NC(=O)[C@@H](NC(=O)[C@H](Cc1ccc(OP(=O)(O)O)cc1)NC(=O)[C@H](CCC(=O)O)NC(=O)CNC(=O)[C@@H]1CCCN1C(=O)[C@H](COP(=O)(O)O)NC(=O)[C@H](CCCCN)NC(=O)[C@@H]1CCCN1C(=O)[C@@H](N)CCC(=O)O)C(C)C)C(=O)N[C@@H](CCC(=O)O)C(=O)N[C@@H](Cc1ccccc1)C(=O)O` [ppSRev-IRS1], for which the Kd came to 1.91 ± 0.2 µM in test [1], 2.56 ± 0.28 µM in test [2] and 0.67 ± 0.16 µM in test [3].

Take `CSCC[C@H](NC(=O)[C@H](Cc1ccc(OP(=O)(O)O)cc1)NC(=O)[C@H](CC(=O)O)NC(=O)[C@H](CO)NC(=O)[C@H](Cc1c[nH]cn1)NC(=O)[C@H](CC(C)C)NC(=O)[C@H](CC(C)C)NC(=O)[C@H](CCCNC(=N)N)NC(=O)[C@H](CO)NC(=O)[C@@H](N)CCCNC(=N)N)C(=O)N[C@@H](CC(N)=O)C(=O)N[C@@H](CCSC)C(=O)N[C@H](C(=O)N1CCC[C@H]1C(=O)N[C@@H](CCCNC(=N)N)C(=O)N[C@@H](CCCNC(=N)N)C(=O)O)[C@@H](C)OP(=O)(O)O` [ppCD28]: the Kd in test [1] was 5.63 ± 0.29 µM; in test [2], 11 ± 0.57 µM; in test [3] it was 15.2 ± 0.49 µM.

`CSCC[C@H](NC(=O)[C@H](Cc1ccc(OP(=O)(O)O)cc1)NC(=O)[C@H](CC(=O)O)NC(=O)[C@H](CO)NC(=O)[C@H](Cc1c[nH]cn1)NC(=O)[C@H](CC(C)C)NC(=O)[C@H](CC(C)C)NC(=O)[C@H](CCCNC(=N)N)NC(=O)[C@H](CO)NC(=O)[C@@H](N)CCCNC(=N)N)C(=O)N[C@@H](CC(N)=O)C(=O)N[C@@H](CCSC)C(=O)N[C@H](C(=O)N1CCC[C@H]1C(=O)N[C@@H](CCCNC(=N)N)C(=O)N[C@@H](CCCNC(=N)N)C(=O)O)[C@@H](C)O` [p0CD28]: the dissociation constant Kd is 34.8 ± 2.25 µM in test [1], 54.6 ± 5.12 µM in test [2] and 45.7 ± 7.49 µM in test [3].

With `CSCC[C@H](NC(=O)[C@@H]1CCCN1C(=O)[C@H](CCSC)NC(=O)[C@H](Cc1ccc(OP(=O)(O)O)cc1)NC(=O)[C@H](CC(=O)O)NC(=O)CNC(=O)[C@H](CO)NC(=O)CNC(=O)[C@H](CCCCN)NC(=O)[C@H](CCCNC(=N)N)NC(=O)CN)C(=O)N[C@@H](CO)C(=O)N1CCC[C@H]1C(=O)N[C@@H](CCCCN)C(=O)N[C@@H](CO)C(=O)O` [p0IRS1], the dissociation constant (Kd) in test [1] turned out to be 191 ± 15.5 µM; in test [2] it was 83.9 ± 2.58 µM; in test [3], 61.8 ± 16.2 µM.
